System: human serum loaded with p-benzoquinone (quinhydron radicals)
Assay: Antioxidant capacity: human serum loaded with p-benzoquinone, colorimetric determination of p-dihydroquinone at 500 nm
Details: for Antiox-Titer: human serum, p-benzoquinone load, extinction at 500 nm/60 sec; for 1 mg of tocotrienol effect in μg radicals/ml · sec.: per 1 mg of tocotrienol; for Radicals μg/ml · sec: radicals inhibited, converted from extinction
Excerpt: In this examining method, human serum is subjected to the oxidative stress of a defined amount of para-benzoquinone. By adding defined amounts of the antioxidants to be tested (natural tocotrienol mixture of wheat bran oil, wheat germ oil, tocopherol acetat, D-alpha-tocopherol), the antioxidant load bearing capacity of the test sample is quantitated by calorimetric determination of the para-dihydroquinone that has been reduced from para-benzoquinone. […] Human donor blood is recovered from the vein without any additives and centrifuged at 800-1000 g after having been left standing for 1 h in the refrigerator (approximately +4° C.-+7° C.). The separated serum fractions are removed and pooled. The serum can be stored at -22° C. for about 14 days or immediately be used for the required measurements. To determine the antioxidant capacity of an antioxidant, the serum is radically loaded in stages. p-Benzoquinone was used for radical formation. In a physiological environment (pH=slightly alkaline), this substance is converted into the relatively stable radical anion of the quinhydrone system. In doing so, one hydrogen atom (1 proton/1 electron) of p-benzoquinone is taken up. The further reaction to the stable end product p-dihydroquinone takes place inversely proportionally, at pH 6.9-7.4 within minutes, and primarily linearly to the antioxidant content (reducing agent) in the reaction environment. Thus, the conditions for the applicability of Lambert-Beer's law have been met for determining the end product (dihydro-quinone) as a typically coloured substance. The comparatively stable radical anion (quinhydrone) is converted into the dihydroquinone in a second reduction step by taking up a further electrone (hydrogen from the available antioxidants). […] The calorimetric determination of the amount of end product is effected at λ=500 nm. […] With a linear extinction increase-and a linearly growing consumption of the antioxidant-active substance, the reacted portions can be precisely calculated from the stoichiometric reaction conditions. According to Michaelis/[…] and Pauling, respectively (Holleman-Wiberg; Lehrbuch der Anorganischen Chemie, de Gruyter-Verlag (1995)), the reaction intensity up to the dihydroquinone will depend on the ratio of the concentrations of oxidised to reduced. I.e., the higher the reduction (antioxidant) supply, the more the reaction will be inhibited, the content of the dihydroquinone forming will decrease. Thus, this reaction is excellently suited to be used in redox systems for finely dosed quantitative determinations for substances that are reducingly active. In three parallel measurement series, serum samples ([…] each) of the pool with p-benzoquinone are loaded in three stages (10, 20 and 30 μg). […] In the calculated reaction quantities, the mean of the 60 second value corresponds to the defined titer (=one third reaction). This value precisely results from the graphic illustration of the mean values as extinction curve. All further tests with antioxidant addition are comparatively related to this defined calibration value of the serum pool without antioxidant addition (i.e., with an increasing supply of antioxidants in the serum, the extinction must drop for dihydroquinone). Three parallel measurement series of serum samples were carried out under addition of 500 μg/ml of preparation according to the invention to determine the antioxidant capacity of the tocotrienol-rich wheat bran oils according to the invention. […] Referring to the curve of the extinction values of the comparative serum without additions and the stoichiometric reaction conditions applied (serum determination/concentration of p-benzoquinone/amount per ml of serum dilution), the conversion factor extinction to radical inhibition will result from this calibration system. […] For a more encompassing evaluation of the product quality, the comparison with other antioxidants is required. […]

Compound	Antiox-Titer	1 mg of tocotrienol effect in μg radicals/ml · sec. [μg radicals/ml · sec.]	Radicals μg/ml · sec [μg/ml · sec]
Cc1c(C)c2c(c(C)c1O)CC[C@@](C)(CCC[C@H](C)CCC[C@H](C)CCCC(C)C)O2 [D-alpha-Tocopherol, D-alpha-tocopherol]	0.06	0.00674	1.6848
CC(=O)Oc1c(C)c(C)c2c(c1C)CCC(C)(CCC[C@H](C)CCC[C@H](C)CCCC(C)C)O2 (stereo partly drawn) [Tocopherol acetate, D,L-alpha-tocopherol acetate]	0.125	0.014	3.51
